Results taken from ChEMBL document CHEMBL5465560, “Selectivity Literature for EUbOPEN Chemogenomic Library” (2024).

How the values were obtained:
[1] = target: T1, Tyrosine-protein kinase ZAP-70 (Homo sapiens) (UniProt P43403); experiment: Selectivity interaction (KinomeScan (DiscoverX)) EUB0000229b ZAP70; conditions: at 10 µM
T1 sequence (whole entry): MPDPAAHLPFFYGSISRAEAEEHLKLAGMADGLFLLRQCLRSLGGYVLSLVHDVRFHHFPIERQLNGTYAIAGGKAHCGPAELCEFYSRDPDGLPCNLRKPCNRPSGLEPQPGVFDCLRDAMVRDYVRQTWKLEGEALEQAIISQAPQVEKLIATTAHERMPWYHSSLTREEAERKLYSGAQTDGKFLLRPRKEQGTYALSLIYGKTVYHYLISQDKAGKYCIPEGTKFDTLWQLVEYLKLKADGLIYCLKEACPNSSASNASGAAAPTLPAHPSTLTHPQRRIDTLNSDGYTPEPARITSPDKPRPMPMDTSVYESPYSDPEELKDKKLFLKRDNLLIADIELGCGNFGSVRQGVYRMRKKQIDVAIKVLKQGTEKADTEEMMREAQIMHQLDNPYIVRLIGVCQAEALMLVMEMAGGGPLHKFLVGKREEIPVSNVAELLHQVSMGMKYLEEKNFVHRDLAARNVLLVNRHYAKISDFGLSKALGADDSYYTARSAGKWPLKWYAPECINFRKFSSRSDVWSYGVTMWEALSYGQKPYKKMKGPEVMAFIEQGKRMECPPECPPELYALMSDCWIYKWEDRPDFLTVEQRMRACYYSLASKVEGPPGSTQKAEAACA

[2] = target: T2, Calcium/calmodulin-dependent protein kinase type IV (Homo sapiens) (UniProt Q16566); experiment: Selectivity interaction (Kinase panel (KiNativ target engagement assay in Jurkat cells)) EUB0001635a CAMK4; assay type: cell-based; conditions: Selectivity number of off-targets 0.0, Selectivity number of targets 233.0, Source Knowledge https://www.sciencedirect.com/science/article/pii/S2451945619300674?via%3Dihub, at 1 µM
T2 sequence (whole entry): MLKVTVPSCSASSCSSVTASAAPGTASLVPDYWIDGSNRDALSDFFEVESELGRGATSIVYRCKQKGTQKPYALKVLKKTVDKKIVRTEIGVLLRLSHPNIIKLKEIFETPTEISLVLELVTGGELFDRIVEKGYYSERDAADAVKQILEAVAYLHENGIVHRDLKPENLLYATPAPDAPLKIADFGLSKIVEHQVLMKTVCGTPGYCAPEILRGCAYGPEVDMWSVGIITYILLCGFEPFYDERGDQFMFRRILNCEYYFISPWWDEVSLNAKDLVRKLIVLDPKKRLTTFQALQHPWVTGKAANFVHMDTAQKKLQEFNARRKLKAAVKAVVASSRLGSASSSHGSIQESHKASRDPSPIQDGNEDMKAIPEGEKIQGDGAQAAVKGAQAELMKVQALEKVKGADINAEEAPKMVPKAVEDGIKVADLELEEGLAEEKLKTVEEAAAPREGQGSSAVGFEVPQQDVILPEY

[3] = target: Death-associated protein kinase 3 (Homo sapiens) (UniProt O43293); conditions: at 10 µM
Sequence of Death-associated protein kinase 3 (Homo sapiens) (O43293 whole entry, looked up): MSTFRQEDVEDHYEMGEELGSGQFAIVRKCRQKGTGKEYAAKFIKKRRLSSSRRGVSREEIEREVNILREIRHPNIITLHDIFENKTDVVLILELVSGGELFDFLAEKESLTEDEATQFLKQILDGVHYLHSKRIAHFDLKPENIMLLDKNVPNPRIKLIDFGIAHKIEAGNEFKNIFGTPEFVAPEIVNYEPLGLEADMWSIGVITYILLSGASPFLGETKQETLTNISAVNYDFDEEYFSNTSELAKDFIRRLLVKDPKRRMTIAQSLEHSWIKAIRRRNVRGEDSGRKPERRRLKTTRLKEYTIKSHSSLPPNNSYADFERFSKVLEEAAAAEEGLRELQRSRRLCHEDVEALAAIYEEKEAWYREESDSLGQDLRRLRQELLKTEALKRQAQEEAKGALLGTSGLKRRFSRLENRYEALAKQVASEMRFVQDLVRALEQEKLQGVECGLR

[4] = target: T3, Beta-adrenergic receptor kinase 1 (Homo sapiens) (UniProt P25098); experiment: Selectivity interaction (SelectScreen profiling (Invitrogen)) EUB0000607a ADRBK1; conditions: at 2 µM
T3 sequence (whole entry): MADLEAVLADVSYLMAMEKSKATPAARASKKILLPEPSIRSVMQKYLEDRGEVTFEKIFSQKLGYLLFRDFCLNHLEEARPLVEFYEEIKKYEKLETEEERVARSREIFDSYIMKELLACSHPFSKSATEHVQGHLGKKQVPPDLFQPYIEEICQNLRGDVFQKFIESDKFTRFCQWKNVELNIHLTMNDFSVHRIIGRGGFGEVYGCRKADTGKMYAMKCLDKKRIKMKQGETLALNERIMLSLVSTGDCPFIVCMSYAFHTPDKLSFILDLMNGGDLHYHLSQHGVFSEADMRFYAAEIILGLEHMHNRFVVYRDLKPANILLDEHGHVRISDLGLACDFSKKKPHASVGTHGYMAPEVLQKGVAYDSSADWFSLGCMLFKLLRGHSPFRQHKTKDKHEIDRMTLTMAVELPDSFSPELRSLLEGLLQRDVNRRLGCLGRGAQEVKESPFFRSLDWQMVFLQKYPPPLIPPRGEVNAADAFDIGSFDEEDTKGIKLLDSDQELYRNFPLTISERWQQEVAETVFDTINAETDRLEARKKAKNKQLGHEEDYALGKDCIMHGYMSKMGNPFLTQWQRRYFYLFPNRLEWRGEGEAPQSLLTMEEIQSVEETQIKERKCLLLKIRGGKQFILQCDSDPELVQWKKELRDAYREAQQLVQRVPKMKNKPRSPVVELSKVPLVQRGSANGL

[5] = target: T4, Serine/threonine-protein kinase Nek5 (Homo sapiens) (UniProt Q6P3R8); experiment: Selectivity interaction (KinomeScan (DiscoverX)) EUB0001049a NEK5; conditions: at 1 µM
T4 sequence (whole entry): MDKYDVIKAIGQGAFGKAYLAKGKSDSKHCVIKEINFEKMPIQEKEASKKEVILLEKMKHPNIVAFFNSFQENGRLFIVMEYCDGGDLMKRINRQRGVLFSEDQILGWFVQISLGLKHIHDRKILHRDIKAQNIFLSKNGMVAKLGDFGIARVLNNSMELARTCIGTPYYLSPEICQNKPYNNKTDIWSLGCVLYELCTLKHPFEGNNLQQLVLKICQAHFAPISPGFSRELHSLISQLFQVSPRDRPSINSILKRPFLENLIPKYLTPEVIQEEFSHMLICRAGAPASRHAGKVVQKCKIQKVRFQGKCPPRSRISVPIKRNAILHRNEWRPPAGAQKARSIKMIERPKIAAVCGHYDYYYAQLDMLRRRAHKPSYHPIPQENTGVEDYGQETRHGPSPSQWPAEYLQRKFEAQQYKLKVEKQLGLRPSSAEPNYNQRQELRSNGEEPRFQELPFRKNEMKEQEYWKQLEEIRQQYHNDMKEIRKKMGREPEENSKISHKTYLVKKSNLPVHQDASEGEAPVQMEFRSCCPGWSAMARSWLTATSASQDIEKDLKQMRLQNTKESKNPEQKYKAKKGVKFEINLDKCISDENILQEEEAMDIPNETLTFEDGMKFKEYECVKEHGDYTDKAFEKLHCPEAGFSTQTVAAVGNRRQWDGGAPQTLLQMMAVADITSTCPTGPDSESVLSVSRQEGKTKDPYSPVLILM

[6] = target: Serine/threonine-protein kinase pim-3 (Homo sapiens) (UniProt Q86V86); experiment: Selectivity interaction (Kinase panel (literature)) EUB0001199aCl PIM3; conditions: at 1 µM
[7] = target: Protein arginine N-methyltransferase 1 (Homo sapiens, UniProt Q99873); conditions: at 1 µM
Sequence of Protein arginine N-methyltransferase 1 (Q99873 whole entry, looked up): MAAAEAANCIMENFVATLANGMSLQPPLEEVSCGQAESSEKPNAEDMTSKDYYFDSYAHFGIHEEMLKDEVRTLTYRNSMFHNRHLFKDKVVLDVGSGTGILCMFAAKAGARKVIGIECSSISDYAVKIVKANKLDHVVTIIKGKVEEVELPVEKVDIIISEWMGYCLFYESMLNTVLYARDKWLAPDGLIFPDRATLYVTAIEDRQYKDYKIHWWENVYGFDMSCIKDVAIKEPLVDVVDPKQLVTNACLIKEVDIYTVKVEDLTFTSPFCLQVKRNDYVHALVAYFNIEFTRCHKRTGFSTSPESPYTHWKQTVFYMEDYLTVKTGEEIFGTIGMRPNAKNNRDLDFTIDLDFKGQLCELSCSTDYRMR

## COc1cc(N(C)c2ccnc3ccc(C(F)(F)F)cc23)cc(OC)c1OC
[1]
  % binding: 100%

## C=CC(=O)Nc1ccc(C(=O)Nc2[nH]nc3c2CN(C(=O)N[C@H](CN(C)C)c2ccccc2)C3(C)C)cc1
[2]
  % of engagement: -6.4%

## Cc1cc([C@@H](C)Nc2ccccc2C(=O)O)c2nc(N3CCOCC3)cc(=O)n2c1 [AZD-6482]
[3]
  % of control: 100%

## CNC(=O)Nc1ccc(-c2nc(N3CC4CCC(C3)O4)c3cnn(C4CCC5(CC4)OCCO5)c3n2)cc1
[4]
  % of inhibition: -1%

## COc1cc(Nc2nc(C)cc(-c3cnn4nc(OC)ccc34)n2)cc(C(F)(F)F)c1
[5]
  % of control: 96%

## CN1Cc2nccc(-c3cn(C)nc3-c3ccc(F)cc3)c2C1=O
[6]
  % of inhibition: 1%

## CNCCN1CCC(c2cc(CN(C)C(=O)c3cccc(Oc4ccccc4)c3)ccn2)CC1
[7]
  % activity: > 90%
